The target of assay [1] is T1, DNA topoisomerase 2-alpha (Homo sapiens, UniProt P11388). In words: Inhibition of human DNA topoisomerase 2alpha using pBR322 DNA at 2 uM after 30 mins by agarose gel electrophoresis.
A further assay has as its system A549. As to the kind of experiment: Cytotoxicity against human A549 cells after 48 hrs by MTT assay. The format is functional, cell-based. As to conditions: A549, 48 h.
Assay [2] deals with T1, DNA topoisomerase 2-alpha. As to the kind of experiment: Inhibition of human DNA topoisomerase 2alpha-mediated relaxation of supercoiled pBR322 at 20 uM after 30 mins by agarose gel electrophoresis.
The subject of another assay is K562. In words: Cytotoxicity against human K562 cells after 48 hrs by MTT assay. The assay is classed as functional, cell-based. To be noted: K562, 48 h. (Tetrazolium dyes change colour on reduction, which living cells bring about.)
The target in assay [3] is T2, DNA topoisomerase 1 (Homo sapiens) (UniProt P11387).
T2 sequence (whole entry): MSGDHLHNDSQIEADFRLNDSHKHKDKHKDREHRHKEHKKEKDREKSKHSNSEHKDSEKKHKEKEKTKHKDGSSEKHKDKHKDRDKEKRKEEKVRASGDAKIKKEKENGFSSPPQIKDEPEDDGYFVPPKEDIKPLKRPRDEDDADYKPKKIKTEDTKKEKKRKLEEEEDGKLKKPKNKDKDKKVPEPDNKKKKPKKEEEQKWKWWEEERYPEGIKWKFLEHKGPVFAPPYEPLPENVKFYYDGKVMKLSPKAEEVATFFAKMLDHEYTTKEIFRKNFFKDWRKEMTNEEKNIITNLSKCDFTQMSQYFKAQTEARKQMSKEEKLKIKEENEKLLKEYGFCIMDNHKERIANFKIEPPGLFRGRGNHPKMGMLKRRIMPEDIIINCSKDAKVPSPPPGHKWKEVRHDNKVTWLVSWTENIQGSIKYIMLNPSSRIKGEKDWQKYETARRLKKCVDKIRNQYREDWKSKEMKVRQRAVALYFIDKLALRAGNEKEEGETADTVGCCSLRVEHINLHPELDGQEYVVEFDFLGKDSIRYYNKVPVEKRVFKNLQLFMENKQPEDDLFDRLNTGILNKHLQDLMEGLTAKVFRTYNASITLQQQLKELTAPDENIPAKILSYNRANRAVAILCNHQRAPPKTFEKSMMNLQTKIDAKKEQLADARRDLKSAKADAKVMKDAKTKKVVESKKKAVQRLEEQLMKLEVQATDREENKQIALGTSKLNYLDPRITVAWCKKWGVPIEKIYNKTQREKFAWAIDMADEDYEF
As to the kind of experiment: Inhibition of DNA topoisomerase 1 (unknown origin)-mediated relaxation of supercoiled pBR322 at 50 uM after 30 mins by agarose gel electrophoresis.

The subject of a further assay is HeLa. In words: Cytotoxicity against human HeLa cells after 48 hrs by MTT assay. The format is functional, cell-based.
The next assay deals with HL-60. In words: Cytotoxicity against human HL60 cells after 48 hrs by MTT assay. The assay is classed as functional, cell-based. To be noted: HL-60, 48 h.
For assay [4], the target named is T1, DNA topoisomerase 2-alpha. As to the kind of experiment: Inhibition of human topoisomerase 2alpha assessed as formation of linear form of supercoiled pBR322 DNA at 50 uM after 30 mins by agarose gel electrophoresis.
Assay [5] deals with T1, DNA topoisomerase 2-alpha. To be noted: 100 uM.
Description: Inhibition of human topoisomerase 2alpha assessed as formation of linear form of supercoiled pBR322 DNA at 100 uM after 30 mins by agarose gel electrophoresis
The target of assay [6] is T1, DNA topoisomerase 2-alpha. As to the kind of experiment: Inhibition of human DNA topoisomerase 2alpha using pBR322 DNA after 30 mins by agarose gel electrophoresis.
Assay [7] concerns the target T1, DNA topoisomerase 2-alpha. As to the kind of experiment: Ratio of mansonone-E IC50 to compound IC50 for human DNA topoisomerase 2alpha.

Calls of active or inactive are those of the source. No cut-off for these calls is given here. Where only a bound is given, the exact number is not on record here.

T1 sequence (P11388 whole entry): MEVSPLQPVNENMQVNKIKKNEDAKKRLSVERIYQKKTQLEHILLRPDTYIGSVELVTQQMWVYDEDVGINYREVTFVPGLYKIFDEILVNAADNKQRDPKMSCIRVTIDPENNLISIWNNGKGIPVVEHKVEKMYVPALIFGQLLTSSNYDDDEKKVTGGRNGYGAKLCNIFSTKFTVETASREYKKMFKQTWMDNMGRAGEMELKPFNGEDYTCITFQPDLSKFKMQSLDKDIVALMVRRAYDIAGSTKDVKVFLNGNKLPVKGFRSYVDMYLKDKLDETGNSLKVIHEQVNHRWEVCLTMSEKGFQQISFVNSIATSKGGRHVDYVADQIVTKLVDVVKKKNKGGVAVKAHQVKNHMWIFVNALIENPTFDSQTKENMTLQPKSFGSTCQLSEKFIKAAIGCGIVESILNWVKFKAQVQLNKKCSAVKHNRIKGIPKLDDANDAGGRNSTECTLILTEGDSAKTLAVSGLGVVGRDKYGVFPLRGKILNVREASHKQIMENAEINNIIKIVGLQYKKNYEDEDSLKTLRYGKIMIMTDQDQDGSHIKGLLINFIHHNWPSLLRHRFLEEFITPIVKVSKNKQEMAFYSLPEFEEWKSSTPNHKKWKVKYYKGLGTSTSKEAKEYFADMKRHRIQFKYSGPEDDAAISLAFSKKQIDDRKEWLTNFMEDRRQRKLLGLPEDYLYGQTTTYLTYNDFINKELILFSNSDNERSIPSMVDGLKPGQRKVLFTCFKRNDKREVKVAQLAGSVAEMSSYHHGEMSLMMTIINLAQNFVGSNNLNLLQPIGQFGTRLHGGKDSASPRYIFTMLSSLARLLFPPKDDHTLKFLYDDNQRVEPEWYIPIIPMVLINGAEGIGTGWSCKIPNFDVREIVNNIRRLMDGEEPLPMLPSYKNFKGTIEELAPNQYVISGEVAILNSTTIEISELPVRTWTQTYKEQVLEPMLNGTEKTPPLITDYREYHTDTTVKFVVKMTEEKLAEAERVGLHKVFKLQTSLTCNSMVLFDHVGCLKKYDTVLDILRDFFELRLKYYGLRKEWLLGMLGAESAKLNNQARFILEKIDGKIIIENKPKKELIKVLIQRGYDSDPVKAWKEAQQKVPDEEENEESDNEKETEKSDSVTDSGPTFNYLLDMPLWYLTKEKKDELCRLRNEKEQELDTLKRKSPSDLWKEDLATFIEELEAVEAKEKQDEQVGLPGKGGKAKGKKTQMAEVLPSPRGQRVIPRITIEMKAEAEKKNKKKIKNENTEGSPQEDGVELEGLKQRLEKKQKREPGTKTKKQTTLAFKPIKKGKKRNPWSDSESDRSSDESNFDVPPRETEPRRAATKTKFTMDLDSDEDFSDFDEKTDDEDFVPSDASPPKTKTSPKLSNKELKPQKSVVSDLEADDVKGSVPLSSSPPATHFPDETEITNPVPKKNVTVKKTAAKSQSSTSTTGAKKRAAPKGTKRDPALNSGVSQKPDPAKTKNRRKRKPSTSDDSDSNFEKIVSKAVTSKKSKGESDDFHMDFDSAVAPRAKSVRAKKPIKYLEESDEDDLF

The IC50 is the point on the concentration scale where inhibition reaches its midpoint. `CCc1ccc(-c2cn(C3COC4=C(Cl)C(=O)C(=O)c5cccc3c54)nn2)cc1` (centres undefined): the inhibition result in assay [1] and in assay [2] was “Active” throughout. Moreover, the IC50 in the assay with A549 was 29.5 µM; in the assay on K562, 10.6 µM; in the assay on HeLa, 29.1 µM; with HL-60, 2.9 µM. In addition, in assay [3], the inhibition result is “inactive”.
In the case of `CCCc1ccc(-c2cn(C3COC4=C(Br)C(=O)C(=O)c5cccc3c54)nn2)cc1` (centres undefined), the inhibition entry in assay [1] and in [2] was “Active” throughout. Further, the half-maximal inhibitory concentration (IC50) in the assay with A549 was found to be 17.3 µM; in the assay on K562, 2.82 µM; in the assay on HeLa it was 11.8 µM; with HL-60 it was 1.49 µM. Moreover, the inhibition result in assay [4] was “inactive”.
On to `CCCCCc1ccc(-c2cn(C3COC4=C(Cl)C(=O)C(=O)c5cccc3c54)nn2)cc1` (centres undefined), for which the inhibition result in assay [1] and in assay [2] was “Active” in each case. Further, the IC50 came to 12.8 µM in the assay on A549, 3.51 µM with K562, 16.9 µM in the assay on HeLa and 3.54 µM with HL-60.
Consider `COc1cc([C@@H]2c3cc4c(cc3[C@@H](O[C@@H]3O[C@@H]5CO[C@@H](C)O[C@H]5[C@H](O)[C@H]3O)[C@H]3COC(=O)[C@H]23)OCO4)cc(OC)c1O` [ETOPOSIDE], for which the IC50 with K562 was found to be 8.45 µM; in the assay on HeLa, 63.7 µM; in the assay with HL-60, 0.33 µM. For the same compound, the inhibition result in assay [5] was “Active”.
With `O=C1C(=O)c2cccc3c2C(=C1Br)OCC3n1cc(-c2ccc(Cl)cc2)nn1` (centres undefined), the inhibition entry in [1] and in assay [2] was “Active” in each case. Further, the IC50 in the assay with A549 worked out at 50 µM; in the assay with K562, 29 µM; with HeLa, 30.6 µM; in the assay on HL-60 it was 15.4 µM.
In the case of `CCOC(=O)c1cn(C2COC3=C(Cl)C(=O)C(=O)c4cccc2c43)nn1` (centres undefined), the inhibition result in [1] and in assay [2] was “Active” in each case. For the same compound, the IC50 in the assay with A549 was above 100 µM; with K562, above 50 µM; in the assay on HeLa it was above 100 µM; in the assay on HL-60 it was above 100 µM.
With `CCc1ccc(-c2cn(C3COC4=C(Br)C(=O)C(=O)c5cccc3c54)nn2)cc1` (centres undefined), the inhibition result in assay [1] and in assay [2] was “Active” in each case. Further, the IC50 in the assay with A549 was found to be 22.9 µM; in the assay with K562 it was 14.4 µM; in the assay on HeLa, 16.7 µM; in the assay with HL-60 it was 4.94 µM.
As for `O=C1C(=O)c2cccc3c2C(=C1Cl)OCC3n1cc(-c2ccc(F)cc2)nn1` (centres undefined), the inhibition result in assay [1] and in [2] was “Active” each time. The IC50 worked out at 43.1 µM in the assay on A549, 16.7 µM in the assay on K562, 48.4 µM with HeLa and 10.7 µM in the assay with HL-60.
For the compound `O=C1C(=O)c2cccc3c2C(=C1Cl)OCC3n1cc(C2CC2)nn1` (centres undefined), the inhibition result in assay [1] and in [2] was “Active” in each case. For the same compound, the IC50 in the assay on A549 is above 100 µM; in the assay on K562 it was 50 µM; in the assay with HeLa it was above 100 µM; with HL-60, 50 µM.
For `CC1=C2OCC(C)c3ccc(C)c(c32)C(=O)C1=O` (centres undefined) [MANSONONE E], the IC50 in the assay with A549 was 17.5 µM; in assay [6], 18.6 µM; in the assay on K562 it was 12.2 µM; in the assay on HeLa it was 15.7 µM; in the assay with HL-60, 10.6 µM.
As for `Cc1ccc(-c2cn(C3COC4=C(Br)C(=O)C(=O)c5cccc3c54)nn2)cc1` (centres undefined), the inhibition entry in assay [1] and in [2] was “Active” each time. Besides, the IC50 in the assay on A549 was 42.9 µM; in the assay with K562, 18.8 µM; in the assay on HeLa, 26.6 µM; with HL-60, 10.3 µM.
On to `CCCCc1ccc(-c2cn(C3COC4=C(Cl)C(=O)C(=O)c5cccc3c54)nn2)cc1` (centres undefined), for which the inhibition entry in assay [1] and in [2] was “Active” each time. Also, the half-inhibitory concentration (IC50) with A549 amounted to 11.4 µM; with K562, 5.67 µM; in the assay with HeLa, 18 µM; with HL-60 it was 2.55 µM.
Consider `CCCCCc1ccc(-c2cn(C3COC4=C(Br)C(=O)C(=O)c5cccc3c54)nn2)cc1` (centres undefined), for which the inhibition entry in assay [1] and in [2] was “Active” throughout. Besides, the IC50 in the assay on A549 stood at 15 µM; in assay [6], 0.92 µM; in the assay on K562, 4.12 µM; with HeLa, 7.72 µM; in the assay with HL-60, 2.34 µM. Further, the Ratio IC50 in assay [7] was 20.
On to `COc1ccc(-c2cn(C3COC4=C(Cl)C(=O)C(=O)c5cccc3c54)nn2)cc1` (centres undefined), for which the inhibition entry in assay [1] and in assay [2] was “Active” each time. Also, the IC50 in the assay with A549 came to 51.1 µM; in the assay with K562 it was 29.8 µM; in the assay with HeLa it was 40.9 µM; in the assay on HL-60, 7.08 µM.
Consider `COC(=O)c1cn(C2COC3=C(Br)C(=O)C(=O)c4cccc2c43)nn1` (centres undefined), for which the inhibition entry in [1] and in [2] was “Active” each time. Besides, the IC50 in the assay with A549, with K562, in the assay on HeLa and in the assay with HL-60 was above 50 µM in each case.
As to `O=C1C(=O)c2cccc3c2C(=C1Cl)OCC3n1cc(-c2ccccc2)nn1` (centres undefined), the inhibition result in assay [1] and in assay [2] was “Active” each time. In addition, the IC50 was found to be 84.5 µM in the assay on A549, 21.4 µM with K562, 70.2 µM with HeLa and 18.4 µM in the assay on HL-60.
Regarding `O=C1C(=O)c2cccc3c2C(=C1Br)OCC3n1cc(-c2ccc(F)cc2)nn1` (centres undefined), the inhibition result in assay [1] and in [2] was “Active” each time. Also, the half-inhibitory concentration (IC50) in the assay with A549 amounted to 50 µM; with K562, 35.5 µM; in the assay on HeLa, 30.2 µM; in the assay with HL-60, 12.3 µM.
Take `CCCc1ccc(-c2cn(C3COC4=C(Cl)C(=O)C(=O)c5cccc3c54)nn2)cc1` (centres undefined): the inhibition entry in assay [1] and in [2] was “Active” throughout. In addition, the IC50 was 28.3 µM in the assay with A549, 3.86 µM in the assay with K562, 24.4 µM in the assay with HeLa and 2.38 µM in the assay with HL-60.
